# Key:
# Assay in all cases: relative viability (nuclei count vs DMSO), 5 days (fraction); higher = more cells survive
# Alisertib + Alpelisib = compound: COc1cc(Nc2ncc3c(n2)-c2ccc(Cl)cc2C(c2c(F)cccc2OC)=NC3)ccc1C(=O)O [Alisertib] + Cc1nc(NC(=O)N2CCC[C@H]2C(N)=O)sc1-c1ccnc(C(C)(C)C(F)(F)F)c1 [Alpelisib] (partner 2 µM)
# In short: (§1)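 Medians of duplicate plates are given as relative viability. That measure is the nuclei count in treated wells divided by the count in vehicle wells. Counts were taken on 4× images of lung cancer cell lines in 1536-well plates, 5 days after pin-tool dosing the day after seeding with one drug alone or a fixed anchor-drug dose plus five library-drug doses (not always all listed) in √10 steps.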
# Alisertib + Dasatinib = compound: COc1cc(Nc2ncc3c(n2)-c2ccc(Cl)cc2C(c2c(F)cccc2OC)=NC3)ccc1C(=O)O [Alisertib] + Cc1nc(Nc2ncc(C(=O)Nc3c(C)cccc3Cl)s2)cc(N2CCN(CCO)CC2)n1 [Dasatinib] (partner 0.075 µM)
# In short: as §1
# Alisertib + Tozasertib = compound: COc1cc(Nc2ncc3c(n2)-c2ccc(Cl)cc2C(c2c(F)cccc2OC)=NC3)ccc1C(=O)O [Alisertib] + Cc1cc(Nc2cc(N3CCN(C)CC3)nc(Sc3ccc(NC(=O)C4CC4)cc3)n2)n[nH]1 [Tozasertib] (partner 0.1 µM)
# In short: as §1
# Alisertib + Luminespib = compound: COc1cc(Nc2ncc3c(n2)-c2ccc(Cl)cc2C(c2c(F)cccc2OC)=NC3)ccc1C(=O)O [Alisertib] + CCNC(=O)c1noc(-c2cc(C(C)C)c(O)cc2O)c1-c1ccc(CN2CCOCC2)cc1 [Luminespib] (partner 0.01 µM)
# In short: as §1
Cell Line,relative viability (Alisertib + Alpelisib; first compound 0.005 µM),relative viability (Alisertib + Alpelisib; first compound 0.01581 µM),relative viability (Alisertib + Alpelisib; first compound 0.05 µM),relative viability (Alisertib + Alpelisib; first compound 0.1581 µM),relative viability (Alisertib + Alpelisib; first compound 0.5 µM),relative viability (Alisertib + Dasatinib; first compound 0.005 µM),relative viability (Alisertib + Dasatinib; first compound 0.01581 µM),relative viability (Alisertib + Dasatinib; first compound 0.05 µM),relative viability (Alisertib + Dasatinib; first compound 0.1581 µM),relative viability (Alisertib + Dasatinib; first compound 0.5 µM),relative viability (Alisertib + Tozasertib; first compound 0.005 µM),relative viability (Alisertib + Tozasertib; first compound 0.01581 µM),relative viability (Alisertib + Tozasertib; first compound 0.05 µM),relative viability (Alisertib + Tozasertib; first compound 0.1581 µM),relative viability (Alisertib + Tozasertib; first compound 0.5 µM),relative viability (Alisertib + Luminespib; first compound 0.005 µM),relative viability (Alisertib + Luminespib; first compound 0.01581 µM),relative viability (Alisertib + Luminespib; first compound 0.05 µM),relative viability (Alisertib + Luminespib; first compound 0.1581 µM),relative viability (Alisertib + Luminespib; first compound 0.5 µM)
201T,0.985,0.997,0.964,0.783,0.378,0.527,0.556,0.583,0.327,0.284,0.899,0.681,0.579,0.407,0.354,1.16,0.971,0.816,0.576,0.362
A-427,1.03,0.922,0.173,0.165,0.14,0.645,0.565,0.291,0.139,0.128,0.211,0.166,0.174,0.186,0.135,0.916,0.576,0.243,0.141,0.209
ABC-1,0.979,0.724,0.929,0.475,0.223,0.46,0.436,0.434,0.226,0.243,0.178,0.233,0.256,0.203,0.196,,,0.491,0.366,0.136
BEN,1.05,0.923,0.37,0.232,0.218,0.499,0.39,0.296,0.178,0.138,0.531,0.457,0.375,0.456,0.4,0.309,0.161,0.133,0.115,0.141
CAL-12T,1.19,0.382,0.217,0.249,0.183,0.275,0.158,0.0813,0.113,0.0899,0.333,0.28,0.202,0.199,0.178,0.412,0.205,0.1,0.169,0.188
COR-L23,0.777,0.697,0.369,0.155,0.0816,0.486,0.439,0.23,0.0935,0.0796,0.439,0.213,0.119,0.124,0.114,0.585,0.568,0.303,0.0956,0.0981
COR-L 105,0.741,0.849,0.71,0.343,0.245,0.291,0.296,0.293,0.194,0.177,0.31,0.346,0.299,0.352,0.276,0.773,0.685,0.56,0.382,0.252
Calu-6,0.771,0.566,0.249,0.188,0.191,,,,,,,,,,,,,,,
ChaGo-K-1,,,,,,0.488,0.6,0.277,0.165,0.162,0.228,0.213,0.194,0.207,0.198,0.565,0.451,0.258,0.169,0.217
EKVX,0.819,0.811,0.49,0.215,0.185,0.541,0.47,0.243,0.244,0.229,0.379,0.305,0.205,0.141,0.151,0.711,0.74,0.356,0.168,0.169
EMC-BAC-2,0.701,0.567,0.296,0.259,0.143,0.315,0.221,0.185,0.161,0.128,0.243,0.283,0.214,0.224,0.173,1.09,0.967,0.395,0.292,0.23
EPLC-272H,0.858,0.838,0.486,0.266,0.133,0.304,0.365,0.382,0.0703,0.0736,0.238,0.176,0.144,0.192,0.16,0.275,0.166,0.122,0.112,0.134
H3255,0.797,0.687,0.463,0.252,0.199,0.328,0.445,0.279,0.242,0.292,0.737,0.503,0.296,0.137,0.227,0.753,0.841,0.522,0.259,0.212
HARA,0.86,0.878,0.363,0.129,0.0864,0.265,0.283,0.279,0.125,0.0962,0.103,0.0888,0.0929,0.104,0.0887,0.682,0.428,0.209,0.0919,0.0942
HCC-15,0.875,0.662,0.229,0.148,0.106,0.45,0.332,0.232,0.104,0.102,0.352,0.154,0.163,0.144,0.0961,0.327,0.371,0.167,0.108,0.128
HCC-44,0.759,0.716,0.458,0.17,0.0925,,,,,,0.929,0.59,0.296,0.349,0.196,0.91,0.667,0.355,0.18,0.176
HCC-78,0.319,0.254,0.162,0.133,0.142,0.379,0.369,0.177,0.171,0.188,0.446,0.273,0.281,0.245,0.211,,,,,
HCC-366,0.337,0.46,0.0611,0.0117,0.0152,0.674,0.353,0.0282,0.0222,0.0468,0.125,0.0689,0.0539,0.0439,0.0387,,,,,
HCC-827,1.05,0.913,0.321,0.282,0.232,0.279,0.409,0.246,0.194,0.236,0.378,0.31,0.258,0.273,0.278,0.48,0.598,0.204,0.209,0.234

Cell Line,relative viability (Alisertib + Alpelisib; first compound 0.005 µM),relative viability (Alisertib + Alpelisib; first compound 0.01581 µM),relative viability (Alisertib + Alpelisib; first compound 0.05 µM),relative viability (Alisertib + Alpelisib; first compound 0.1581 µM),relative viability (Alisertib + Alpelisib; first compound 0.5 µM),relative viability (Alisertib + Dasatinib; first compound 0.005 µM),relative viability (Alisertib + Dasatinib; first compound 0.01581 µM),relative viability (Alisertib + Dasatinib; first compound 0.05 µM),relative viability (Alisertib + Dasatinib; first compound 0.1581 µM),relative viability (Alisertib + Dasatinib; first compound 0.5 µM),relative viability (Alisertib + Tozasertib; first compound 0.005 µM),relative viability (Alisertib + Tozasertib; first compound 0.01581 µM),relative viability (Alisertib + Tozasertib; first compound 0.05 µM),relative viability (Alisertib + Tozasertib; first compound 0.1581 µM),relative viability (Alisertib + Tozasertib; first compound 0.5 µM),relative viability (Alisertib + Luminespib; first compound 0.005 µM),relative viability (Alisertib + Luminespib; first compound 0.01581 µM),relative viability (Alisertib + Luminespib; first compound 0.05 µM),relative viability (Alisertib + Luminespib; first compound 0.1581 µM),relative viability (Alisertib + Luminespib; first compound 0.5 µM)
HOP-62,0.926,0.976,0.345,0.198,0.133,0.537,0.688,0.433,0.185,0.154,0.339,0.275,0.204,0.24,0.203,0.845,0.808,0.288,0.259,0.153
IA-LM,0.407,0.739,0.462,0.247,0.0598,,,,,,,,,,,,,,,
LC-2-ad,0.766,0.631,0.209,0.138,0.0966,0.315,0.33,0.263,0.202,0.133,0.441,0.367,0.366,0.338,0.323,0.892,0.435,0.39,0.392,0.32
LCLC-97TM1,0.23,0.203,0.15,0.138,0.112,0.773,0.712,0.709,0.192,0.173,0.203,0.185,0.166,0.181,0.149,0.787,0.601,0.318,0.177,0.12
LCLC-103H,0.849,1.03,0.313,0.335,0.333,0.455,0.509,0.423,0.26,0.158,0.432,0.42,0.223,0.247,0.26,0.949,0.883,0.278,0.311,0.269
LK-2,1.08,0.878,0.364,0.299,0.268,0.353,0.267,0.212,0.192,0.153,0.167,0.184,0.164,0.197,0.185,0.19,0.165,0.184,0.18,0.187
LOU-NH91,0.728,0.762,0.635,0.442,0.409,0.526,0.624,0.477,0.351,0.296,0.656,0.652,0.47,0.364,0.337,0.334,0.311,0.297,0.293,0.291
LU99A,0.493,0.455,0.181,0.163,0.154,0.502,0.513,0.323,0.183,0.17,0.276,0.272,0.219,0.216,0.203,0.245,0.3,0.219,0.201,0.177
LXF-289,0.909,0.592,0.215,0.133,0.0979,0.206,0.256,0.0522,0.0513,0.0398,0.169,0.14,0.128,0.141,0.0869,0.455,0.325,0.16,0.0792,0.142
NCI-H23,0.819,0.462,0.228,0.173,0.157,0.67,0.661,0.301,0.173,0.198,0.27,0.249,0.165,0.208,0.15,0.219,0.236,0.204,0.224,0.214
NCI-H522,,,,,,0.812,0.91,0.67,0.323,0.434,0.543,0.565,0.489,0.517,0.439,1.2,1,0.493,0.331,0.426
NCI-H1563,0.967,0.848,0.9,0.824,0.719,0.441,0.544,0.442,0.414,0.387,,,,,,0.509,0.54,0.483,0.295,0.413
NCI-H1648,,,,,,,,,,,0.637,0.272,0.218,0.303,0.205,,,,,
NCI-H1650,,,,,,0.325,0.298,0.164,0.138,0.125,0.46,0.394,0.2,0.246,0.202,0.19,0.194,0.171,0.196,0.177
NCI-H1703,0.298,0.311,0.211,0.157,0.18,,,,,,,,,,,,,,,
NCI-H1792,0.678,0.606,0.246,0.0918,0.0744,0.727,0.732,0.413,0.252,0.162,,,,,,0.481,0.533,0.225,0.195,0.17
NCI-H2342,,,,,,0.291,0.348,0.266,0.268,0.276,0.623,0.424,0.335,0.377,0.351,0.646,0.662,0.555,0.447,0.368
SW 900,,,,,,0.494,0.435,0.404,0.171,0.172,0.557,0.54,0.375,0.241,0.191,0.16,0.167,0.182,0.188,0.176

# — the supplement of paper PMC10307832
